Results on one compound are retold here after patent publication EP4670722A1, “PROPHYLACTIC OR AMELIORATING AGENT FOR CELL AGING” (Kyowa Pharma Chemical Co., Ltd., priority 2023, dated 2024).

In the assay the test system is GLS1. The assay can be described thus: GLS1 expression analysis (ELISA) in BV2. In kind it is cell-based. Particulars: mouse microglial cells (BV2), at least 200 µg/mL or more, 24 hours; effect increased from 200 to 1000 µg/mL; Fig. 12. Here is the method:
Mouse microglial cells (BV2) were cultured in glutamine-containing DMEM. The cultured cells were collected by trypsin treatment. The collected cells were seeded in a 6-well plate at a cell density of 4 x 10^5 cells/well and cultured for 24 hours in a 37°C, 5% CO2 incubator. After culturing, glutamine-free DMEM containing the test sample (2'-FL and lactose) at 50 µg/mL, 200 µg/mL, or 1000 µg/mL was added, and cultured for 24 hours in a 37°C, 5% CO2 incubator. The culture supernatant was removed, the cells were washed twice with PBS, and 0.20 mL of RIPA buffer was added to extract total protein. Protein in each protein extract was quantified by the Bradford assay.
Protein extracts were collected in the same manner as in [Example 10-1 B. Human gastric undifferentiated carcinoma cells (KKLS)], [Example 10-1 C. Mouse microglial cells (BV2)], [Example 10-1 D. Human gingival fibroblasts (Gin-1)], and [Example 10-1 E. Human umbilical vein endothelial cells (HUVEC)], respectively, except that a medium same as the above-mentioned medium but not containing the test sample was used instead of the medium containing the test sample, and protein in each protein extract was quantified by the Bradford assay.
An ELISA method was performed using an antibody against GLS1 to measure the amount of GLS1 in the samples. […]
(An ELISA detects its analyte on a solid surface through an enzyme-linked reagent.)

The structures appear in SMILES notation.

On to `C[C@@H]1O[C@@H](O[C@H]2[C@H](O[C@H]3[C@H](O)[C@@H](O)C(O)O[C@@H]3CO)O[C@H](CO)[C@H](O)[C@@H]2O)[C@@H](O)[C@H](O)[C@@H]1O` (stereo partly shown) [2'-FL, 2'-fucosyllactose], for which the GLS1 expression result is given as “suppressed GLS1 expression”.
